# Measurements from PubChem BioAssay AID248 (DTP/NCI, 2004).
# Values joined by “and” are separate entries in the source; they are usually repeats but may differ in a detail not shown here. Equal values may be shown once. Inconclusive results and toxic doses are left out.
# Tested on: L1210 leukemia ip in BDF1 mice, survival T/C
# Experiment: NCI In Vivo Anticancer Drug Screen. Data for tumor model L1210 Leukemia (intraperitoneal) in B6D2F1 (BDF1) mice
# Conditions: endpoint: mean survival time, higher = longer survival
# In short: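 Tumor was transplanted into mice, which were then dosed with test compound or vehicle alone. Survival was recorded for each group, and the treated figure was expressed relative to the control figure.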
# [1] = dose: 25.0 mg/kg/injection, schedule: Q01DX009 (ip), vehicle: Klucel (hydroxypropylcellulose) (HPC)
# [2] = dose: 50.0 mg/kg/injection, schedule: Q01DX009 (ip), vehicle: Klucel (hydroxypropylcellulose) (HPC)
# [3] = dose: 50.0 mg/kg/injection, schedule: Q04DX003 (ip), vehicle: Klucel (hydroxypropylcellulose) (HPC)
# [4] = dose: 100.0 mg/kg/injection, schedule: Q01DX009 (ip), vehicle: Klucel (hydroxypropylcellulose) (HPC)
# [5] = dose: 100.0 mg/kg/injection, schedule: Q04DX003 (ip), vehicle: Klucel (hydroxypropylcellulose) (HPC)
# [6] = dose: 100.0 mg/kg/injection, schedule: Q01DX001 (ip), vehicle: saline
# [7] = dose: 200.0 mg/kg/injection, schedule: Q01DX001 (ip), vehicle: saline
# [8] = dose: 400.0 mg/kg/injection, schedule: Q01DX001 (ip), vehicle: saline
# [9] = dose: 100.0 mg/kg/injection, schedule: Q04DX003 (ip), vehicle: saline with Tween-80
# [10] = dose: 100.0 mg/kg/injection, schedule: Q01DX001 (ip), vehicle: saline with Tween-80
# [11] = dose: 200.0 mg/kg/injection, schedule: Q01DX001 (ip), vehicle: saline with Tween-80
# [12] = dose: 200.0 mg/kg/injection, schedule: Q04DX003 (ip), vehicle: saline with Tween-80
# [13] = dose: 400.0 mg/kg/injection, schedule: Q04DX003 (ip), vehicle: saline with Tween-80
# [14] = dose: 200.0 mg/kg/injection, schedule: Q04DX003 (ip), vehicle: Klucel (hydroxypropylcellulose) (HPC)
# [15] = dose: 400.0 mg/kg/injection, schedule: Q04DX003 (ip), vehicle: Klucel (hydroxypropylcellulose) (HPC)
# [16] = dose: 100.0 mg/kg/injection, schedule: Q01DX001 (ip), vehicle: carboxymethylcellulose (CMC)
# [17] = dose: 200.0 mg/kg/injection, schedule: Q01DX001 (ip), vehicle: carboxymethylcellulose (CMC)
# [18] = dose: 400.0 mg/kg/injection, schedule: Q01DX001 (ip), vehicle: carboxymethylcellulose (CMC)
smiles,measurement,setting,value
CCCCCCCCC(=O)C[N+](=O)[O-],T/C,"dose: 18.8 mg/kg/injection, schedule: Q01DX009 (ip), vehicle: saline",97 % of control
same,T/C,"dose: 18.8 mg/kg/injection, schedule: Q04DX003 (ip), vehicle: saline",106 % of control
same,T/C,"dose: 37.5 mg/kg/injection, schedule: Q01DX009 (ip), vehicle: saline",95 % of control
same,T/C,"dose: 37.5 mg/kg/injection, schedule: Q04DX003 (ip), vehicle: saline",95 % of control
same,T/C,"dose: 75.0 mg/kg/injection, schedule: Q01DX001 (ip), vehicle: saline",93 % of control
same,T/C,"dose: 75.0 mg/kg/injection, schedule: Q01DX009 (ip), vehicle: saline",99 % of control
same,T/C,"dose: 75.0 mg/kg/injection, schedule: Q04DX003 (ip), vehicle: saline",95 % of control
CC1=NN(c2ccccc2)/C(=N/N=C(N)N)C1CC1C(C)=NN(c2ccccc2)/C1=N/N=C(N)N (centres undefined),T/C,"dose: 15.0 mg/kg/injection, schedule: Q01DX Z (ip), vehicle: carboxymethylcellulose (CMC)",102 % of control
same,T/C,"dose: 30.0 mg/kg/injection, schedule: Q01DX Z (ip), vehicle: carboxymethylcellulose (CMC)",97 % of control
same,T/C,"dose: 60.0 mg/kg/injection, schedule: Q01DX Z (ip), vehicle: carboxymethylcellulose (CMC)",100 % of control and 102 % of control
same,T/C,"dose: 120.0 mg/kg/injection, schedule: Q01DX Z (ip), vehicle: carboxymethylcellulose (CMC)",95 % of control and 96 % of control
same,T/C,"dose: 240.0 mg/kg/injection, schedule: Q01DX Z (ip), vehicle: carboxymethylcellulose (CMC)",91 % of control
CCCC[P+](CCCC)(CCCC)Cc1ccc(C(=O)Oc2ccc([N+](=O)[O-])cc2)cc1,T/C,[1],98 % of control
same,T/C,"dose: 25.0 mg/kg/injection, schedule: Q04DX003 (ip), vehicle: Klucel (hydroxypropylcellulose) (HPC)",91 % of control
same,T/C,[2],89 % of control
same,T/C,[3],93 % of control
same,T/C,[4],102 % of control
same,T/C,[5],96 % of control and 88 % of control
O=C(CS(=O)(=O)Cc1ccccc1)N1CCOCC1,T/C,[6],95 % of control
same,T/C,[7],93 % of control
same,T/C,"dose: 200.0 mg/kg/injection, schedule: Q01DX009 (ip), vehicle: saline",89 % of control
same,T/C,[8],93 % of control
same,T/C,"dose: 400.0 mg/kg/injection, schedule: Q01DX009 (ip), vehicle: saline",102 % of control
O=c1ccc2c([nH]1)CCC2,T/C,"dose: 25.0 mg/kg/injection, schedule: Q01DX009 (ip), vehicle: saline",111 % of control
same,T/C,"dose: 25.0 mg/kg/injection, schedule: Q04DX003 (ip), vehicle: saline with Tween-80",94 % of control
same,T/C,"dose: 50.0 mg/kg/injection, schedule: Q01DX009 (ip), vehicle: saline",121 % of control
same,T/C,"dose: 50.0 mg/kg/injection, schedule: Q04DX003 (ip), vehicle: saline with Tween-80",98 % of control
same,T/C,"dose: 100.0 mg/kg/injection, schedule: Q01DX009 (ip), vehicle: saline",101 % of control
same,T/C,[5],100 % of control
same,T/C,[9],94 % of control
c1ccc(Oc2ccc(-c3ccc(Oc4ccccc4)cc3)cc2)cc1,T/C,"dose: 100.0 mg/kg/injection, schedule: Q01DX009 (ip), vehicle: saline with Tween-80",91 % of control
same,T/C,"dose: 400.0 mg/kg/injection, schedule: Q01DX009 (ip), vehicle: saline with Tween-80",91 % of control
CC(=O)OC1CCC2(C)C(=CCC3C2CCC2(C)C3CC3OC4(CCC(C)CN4C(C)=O)C(C)C32)C1 (centres undefined),T/C,[10],98 % of control
same,T/C,[11],95 % of control
same,T/C,"dose: 400.0 mg/kg/injection, schedule: Q01DX001 (ip), vehicle: saline with Tween-80",95 % of control
Cc1ccccc1SC(=O)Nc1cccc(Cl)c1Cl,T/C,[1],112 % of control
same,T/C,[2],104 % of control
same,T/C,[4],94 % of control and 103 % of control
same,T/C,"dose: 200.0 mg/kg/injection, schedule: Q01DX009 (ip), vehicle: Klucel (hydroxypropylcellulose) (HPC)",87 % of control
CCOC(=O)c1cnccc1C#N,T/C,"dose: 100.0 mg/kg/injection, schedule: Q04DX002 (ip), vehicle: Klucel (hydroxypropylcellulose) (HPC)",88 % of control
same,T/C,"dose: 200.0 mg/kg/injection, schedule: Q04DX002 (ip), vehicle: Klucel (hydroxypropylcellulose) (HPC)",100 % of control
same,T/C,"dose: 400.0 mg/kg/injection, schedule: Q04DX002 (ip), vehicle: Klucel (hydroxypropylcellulose) (HPC)",100 % of control
CC(=O)CC(=O)Nc1ccc(Cc2ccc(NC(=O)CC(C)=O)c(C)c2)cc1C,T/C,[6],88 % of control
same,T/C,[7],94 % of control
same,T/C,[8],94 % of control
CCOC(=O)C1(CCCN2C(=O)c3ccccc3C2=O)CC(C(=O)OCC)(C(=O)OCC)CCC1=O (centres undefined),T/C,"dose: 100.0 mg/kg/injection, schedule: Q04DX002 (ip), vehicle: saline with Tween-80",94 % of control
same,T/C,"dose: 200.0 mg/kg/injection, schedule: Q04DX002 (ip), vehicle: saline with Tween-80",100 % of control
C(=N\Nc1ccccc1)/C(=N\Nc1ccccc1)c1ccccc1,T/C,[9],103 % of control
same,T/C,[12],97 % of control
same,T/C,[13],98 % of control
CCCCCNCCC[P+](c1ccccc1)(c1ccccc1)c1ccccc1,T/C,"dose: 25.0 mg/kg/injection, schedule: Q04DX002 (ip), vehicle: saline",98 % of control
same,T/C,"dose: 50.0 mg/kg/injection, schedule: Q04DX002 (ip), vehicle: saline",105 % of control
same,T/C,"dose: 100.0 mg/kg/injection, schedule: Q04DX002 (ip), vehicle: saline",119 % of control
O=C1C=C(Nc2cccc(Cl)c2)C(=O)N1c1cccc(Cl)c1,T/C,"dose: 75.0 mg/kg/injection, schedule: Q04DX003 (ip), vehicle: other",106 % of control
same,T/C,"dose: 150.0 mg/kg/injection, schedule: Q04DX003 (ip), vehicle: other",91 % of control
same,T/C,"dose: 300.0 mg/kg/injection, schedule: Q04DX003 (ip), vehicle: other",90 % of control
O=C(O)c1ccc(CCCCl)cc1,T/C,"dose: 12.5 mg/kg/injection, schedule: Q01DX001 (ip), vehicle: Klucel (hydroxypropylcellulose) (HPC)",98 % of control
same,T/C,"dose: 25.0 mg/kg/injection, schedule: Q01DX001 (ip), vehicle: Klucel (hydroxypropylcellulose) (HPC)",103 % of control
same,T/C,"dose: 50.0 mg/kg/injection, schedule: Q01DX001 (ip), vehicle: Klucel (hydroxypropylcellulose) (HPC)",94 % of control
COc1cc(C(=O)N2CCN(Cc3ccccc3)CC2)cc(OC)c1OC,T/C,[5],93 % of control
same,T/C,[14],107 % of control
same,T/C,[15],93 % of control
CN(CCO)/N=N/c1nc[nH]c1C(N)=O,T/C,[16],107 % of control
same,T/C,[17],113 % of control
same,T/C,[18],107 % of control
same,T/C,"dose: 400.0 mg/kg/injection, schedule: Q01DX009 (ip), vehicle: carboxymethylcellulose (CMC)",169 % of control
same,T/C,"dose: 800.0 mg/kg/injection, schedule: Q01DX009 (ip), vehicle: carboxymethylcellulose (CMC)",92 % of control
O=C(NO)Nc1nc(Cl)c(Cl)nc1Cl,T/C,"dose: 25.0 mg/kg/injection, schedule: Q01DX009 (ip), vehicle: water",94 % of control
same,T/C,"dose: 50.0 mg/kg/injection, schedule: Q01DX009 (ip), vehicle: water",100 % of control
O=c1sc(=S)[nH]c2ccccc12,T/C,[5],88 % of control
same,T/C,[14],93 % of control
CCOC(=O)C(C#N)=C1CC(C)OC(C)C1 (centres undefined),T/C,[9],100 % of control
same,T/C,[12],97 % of control
same,T/C,[13],103 % of control
Nc1nc2ncc(CNc3cnc(C(=O)NC(CCC(=O)O)C(=O)O)nc3)nc2c(=O)[nH]1 (centres undefined),T/C,"dose: 50.0 mg/kg/injection, schedule: Q01DX009 (ip), vehicle: alkali diluted with saline",107 % of control
same,T/C,[10],103 % of control
same,T/C,[11],112 % of control
O=C(Nc1ccccc1O)c1ccccc1,T/C,[5],109 % of control
same,T/C,[14],102 % of control
same,T/C,[15],101 % of control
c1ccc2c(c1)Nc1cc3ccccc3cc1O2,T/C,"dose: 50.0 mg/kg/injection, schedule: Q01DX001 (ip), vehicle: carboxymethylcellulose (CMC)",101 % of control
same,T/C,[16],92 % of control
same,T/C,[17],97 % of control
same,T/C,[18],90 % of control
CC1CSC(=S)S1 (centres undefined),T/C,[3],102 % of control
same,T/C,[5],107 % of control
same,T/C,[14],104 % of control
Cc1ccc(C(CO)(CO)OC(CO)(CO)c2ccc(C)c(C)c2)cc1C,T/C,"dose: 50.0 mg/kg/injection, schedule: Q01DX001 (ip), vehicle: saline",105 % of control
same,T/C,[6],97 % of control
same,T/C,[7],105 % of control
same,T/C,[8],105 % of control
CN(C)N=Nc1ccc(C(=O)NC(CCC(=O)NN)C(=O)NN)cc1 (centres undefined),T/C,[6],96 % of control
same,T/C,[7],111 % of control
same,T/C,[8],94 % of control
